ChEMBL document CHEMBL4725440, “Peptoid NPhe in AGRP-Based c[Pro-Arg-Phe-Phe-Xxx-Ala-Phe-DPro] Scaffolds Maintain Mouse MC4R Antagonist Potency” (ACS Med Chem Lett, 2020)
Where a SMILES comes first, the peptide text is derived from it.

Assays:
Format in all cases: functional
[1] = biological target: Melanocortin receptor 5 (Mus musculus) (UniProt P41149); assay: Agonist activity at mouse MC5R at 100 uM by alphascreen cAMP assay relative to control
Melanocortin receptor 4 [2] = biological target: T1, Melanocortin receptor 4 (Mus musculus, UniProt P56450); assay: Antagonist activity at mouse MC4R assessed as antagonist potency by alphascreen cAMP assay; details: read-out: pA2 (converted)
T1 sequence (P56450 whole entry): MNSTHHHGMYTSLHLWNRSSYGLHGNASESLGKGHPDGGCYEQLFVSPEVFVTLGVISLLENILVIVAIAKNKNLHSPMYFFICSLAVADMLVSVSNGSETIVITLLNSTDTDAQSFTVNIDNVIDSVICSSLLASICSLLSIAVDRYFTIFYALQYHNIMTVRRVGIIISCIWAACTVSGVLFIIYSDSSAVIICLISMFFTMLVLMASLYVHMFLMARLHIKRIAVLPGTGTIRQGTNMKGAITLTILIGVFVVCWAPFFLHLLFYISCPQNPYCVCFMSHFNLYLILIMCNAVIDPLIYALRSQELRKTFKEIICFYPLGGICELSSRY

Melanocortin receptor 3 [3] = biological target: T2, Melanocortin receptor 3 (Mus musculus, UniProt P33033); assay: Agonist activity at mouse MC3R by alphascreen cAMP assay
T2 sequence (P33033 whole entry): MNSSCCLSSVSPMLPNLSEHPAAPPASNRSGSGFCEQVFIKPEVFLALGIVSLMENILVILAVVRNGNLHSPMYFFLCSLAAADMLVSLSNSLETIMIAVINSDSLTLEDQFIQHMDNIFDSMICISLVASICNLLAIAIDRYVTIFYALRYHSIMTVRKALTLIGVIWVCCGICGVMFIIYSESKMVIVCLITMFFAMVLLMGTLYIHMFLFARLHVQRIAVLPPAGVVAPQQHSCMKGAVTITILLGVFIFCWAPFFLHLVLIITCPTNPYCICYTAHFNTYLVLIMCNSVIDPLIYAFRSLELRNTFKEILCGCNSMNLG

Melanocortin receptor 4 [4] = biological target: T1, Melanocortin receptor 4; assay: Agonist activity at mouse MC4R by alphascreen cAMP assay
Melanocortin receptor 3 [5] = biological target: T2, Melanocortin receptor 3; assay: Antagonist activity at mouse MC3R assessed as antagonist potency by alphascreen cAMP assay; details: read-out: pA2 (converted)
Melanocortin receptor 5 = Melanocortin receptor 5 (Mus musculus, UniProt P41149); assay: Agonist activity at mouse MC5R by alphascreen cAMP assay
Sequence of Melanocortin receptor 5 (P41149 whole entry): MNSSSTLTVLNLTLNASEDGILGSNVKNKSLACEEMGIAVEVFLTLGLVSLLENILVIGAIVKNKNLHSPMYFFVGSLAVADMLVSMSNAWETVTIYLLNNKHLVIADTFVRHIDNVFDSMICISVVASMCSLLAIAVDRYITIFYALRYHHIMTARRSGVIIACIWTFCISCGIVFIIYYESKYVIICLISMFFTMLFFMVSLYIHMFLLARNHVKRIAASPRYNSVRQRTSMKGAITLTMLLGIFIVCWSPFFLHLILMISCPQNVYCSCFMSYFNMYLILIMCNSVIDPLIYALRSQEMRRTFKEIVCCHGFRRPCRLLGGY

[6] = biological target: Melanocyte-stimulating hormone receptor (Mus musculus, UniProt Q01727); assay: Agonist activity at mouse MC1R by alphascreen cAMP assay
Sequence of Melanocyte-stimulating hormone receptor (Q01727 whole entry): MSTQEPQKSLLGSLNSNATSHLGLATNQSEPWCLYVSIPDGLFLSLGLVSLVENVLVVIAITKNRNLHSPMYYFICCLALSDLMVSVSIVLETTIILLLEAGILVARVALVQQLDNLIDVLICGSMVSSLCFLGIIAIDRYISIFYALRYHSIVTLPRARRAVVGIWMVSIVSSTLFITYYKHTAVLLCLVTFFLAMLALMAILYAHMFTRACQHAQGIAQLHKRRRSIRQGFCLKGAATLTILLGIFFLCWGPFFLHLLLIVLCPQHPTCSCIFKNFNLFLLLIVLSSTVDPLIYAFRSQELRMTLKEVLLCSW

[7] = biological target: Melanocyte-stimulating hormone receptor (Mus musculus) (UniProt Q01727); assay: Agonist activity at mouse MC1R at 100 uM by alphascreen cAMP assay relative to NDP-MSH; details: filed as partial agonist
Sequence of Melanocyte-stimulating hormone receptor (Mus musculus) (Q01727 whole entry, looked up): as the sequence (Q01727 whole entry) above

[8] = biological target: Melanocortin receptor 3 (Mus musculus) (UniProt P33033); assay: Agonist activity at mouse MC3R at 100 uM by alphascreen cAMP assay relative to control
Sequence of Melanocortin receptor 3 (Mus musculus) (P33033 whole entry): as the sequence (P33033 whole entry) above

Sequence of Melanocortin receptor 5 (Mus musculus) (P41149 whole entry): as the sequence (P41149 whole entry) above

| Activity ([1]; filed as inverse agonist) [%] | EC50 (Melanocortin receptor 3 [3]) [µM] | EC50 (Melanocortin receptor 4 [4]) [µM] | EC50 (Melanocortin receptor 5) [µM] | Activity [7] [%] | Activity ([1]; filed as partial agonist) [%] | Activity [8] [%] | Activity ([8]; filed as agonist) [%] | Structure (SMILES) | Kb (Melanocortin receptor 4 [2]) [µM] | Kb (Melanocortin receptor 3 [5]) [µM] | EC50 [6] [µM] |
| --- | --- | --- | --- | --- | --- | --- | --- | --- | --- | --- | --- |
| 10 | > 100 | > 100 | – | – | – | – | – | C[C@@H]1NC(=O)[C@H](CC(N)=O)NC(=O)[C@H](Cc2ccccc2)NC(=O)CN(Cc2ccccc2)C(=O)[C@H](CCCNC(=N)N)NC(=O)[C@@H]2CCCN2C(=O)[C@H]2CCCN2C(=O)[C@H](Cc2ccccc2)NC1=O | > 3.16 | – | – |
| – | > 100 | > 100 | > 100 | – | – | – | – | CN1CC(=O)N[C@@H](Cc2ccccc2)C(=O)N2CCC[C@@H]2C(=O)N2CCC[C@H]2C(=O)N[C@@H](CCCNC(=N)N)C(=O)N[C@@H](Cc2ccccc2)C(=O)N[C@@H](Cc2ccccc2)C(=O)N[C@@H](CC(N)=O)C1=O (HELM PEPTIDE1{P.R.F.F.N.[Sar].F.[dP]}$PEPTIDE1,PEPTIDE1,1:R1-8:R2$$$V2.0) | > 3.16 | > 3.16 | – |
| 10 | > 100 | > 100 | – | 60 | – | – | – | C[C@@H]1NC(=O)[C@H](CN)NC(=O)CN(Cc2ccccc2)C(=O)[C@H](Cc2ccccc2)NC(=O)[C@H](CCCNC(=N)N)NC(=O)[C@@H]2CCCN2C(=O)[C@H]2CCCN2C(=O)[C@H](Cc2ccccc2)NC1=O | – | – | – |
| – | > 100 | > 100 | > 100 | 50 | – | – | – | C[C@@H]1NC(=O)[C@H](CC(N)=O)NC(=O)[C@H](Cc2ccccc2)NC(=O)[C@H](Cc2ccccc2)NC(=O)CN(CCCNC(=N)N)C(=O)[C@@H]2CCCN2C(=O)[C@H]2CCCN2C(=O)[C@H](Cc2ccccc2)NC1=O (HELM PEPTIDE1{P.[N=C(N)NCCCN(CC(=O)[*:2])[*:1]].F.F.N.A.F.[dP]}$PEPTIDE1,PEPTIDE1,1:R1-8:R2$$$V2.0) | > 3.16 | > 3.16 | – |
| 10 | > 100 | > 100 | – | 70 | – | – | – | C[C@@H]1NC(=O)[C@H](CC(N)=O)NC(=O)CN(Cc2ccccc2)C(=O)[C@H](Cc2ccccc2)NC(=O)[C@H](CCCNC(=N)N)NC(=O)[C@@H]2CCCN2C(=O)[C@H]2CCCN2C(=O)[C@H](Cc2ccccc2)NC1=O | – | – | – |
| – | > 100 | > 100 | – | 80 | 70 | – | – | C[C@@H]1NC(=O)[C@H](CN)NC(=O)[C@H](Cc2ccccc2)NC(=O)CN(Cc2ccccc2)C(=O)[C@H](CCCNC(=N)N)NC(=O)[C@@H]2CCCN2C(=O)[C@H]2CCCN2C(=O)[C@H](Cc2ccccc2)NC1=O | – | – | – |
| 10 | – | – | – | – | – | 20 | – | C[C@@H]1NC(=O)[C@H](CN)NC(=O)[C@H](Cc2ccccc2)NC(=O)[C@H](Cc2ccccc2)NC(=O)[C@H](CCCNC(=N)N)NC(=O)[C@@H]2CCCN2C(=O)[C@H]2CCCN2C(=O)[C@H](Cc2ccccc2)NC1=O | – | – | – |
| – | – | > 100 | > 100 | 85 | – | – | 60 | C[C@@H]1NC(=O)[C@H](CC(N)=O)NC(=O)[C@H](Cc2ccccc2)NC(=O)[C@H](Cc2ccccc2)NC(=O)[C@H](CCCNC(=N)N)NC(=O)[C@@H]2CCCN2C(=O)[C@H]2CCCN2C(=O)CN(Cc2ccccc2)C1=O | > 3.16 | > 3.16 | – |

| Structure (SMILES) | Activity ([1]; filed as inverse agonist) [%] | EC50 (Melanocortin receptor 3 [3]) [µM] | EC50 (Melanocortin receptor 4 [4]) [µM] | EC50 (Melanocortin receptor 5) [µM] | Activity [7] [%] | Activity ([1]; filed as partial agonist) [%] | Activity [8] [%] | Activity ([8]; filed as agonist) [%] | Kb (Melanocortin receptor 4 [2]) [µM] | Kb (Melanocortin receptor 3 [5]) [µM] | EC50 [6] [µM] |
| --- | --- | --- | --- | --- | --- | --- | --- | --- | --- | --- | --- |
| C[C@@H]1NC(=O)[C@H](CN)NC(=O)[C@H](Cc2ccccc2)NC(=O)[C@H](Cc2ccccc2)NC(=O)CN(CCCNC(=N)N)C(=O)[C@@H]2CCCN2C(=O)[C@H]2CCCN2C(=O)[C@H](Cc2ccccc2)NC1=O (HELM PEPTIDE1{[N=C(N)NCCCN(CC(=O)[*:2])[*:1]].F.F.[NC[C@H](N[*:1])C(=O)[*:2]].A.F.[dP].P}$PEPTIDE1,PEPTIDE1,1:R1-8:R2$$$V2.0) | – | > 100 | > 100 | > 100 | – | – | – | – | > 3.16 | 1.26 | > 100 |
| C[C@@H]1NC(=O)[C@H](CN)NC(=O)[C@H](Cc2ccccc2)NC(=O)[C@H](Cc2ccccc2)NC(=O)[C@H](CCCNC(=N)N)NC(=O)[C@@H]2CCCN2C(=O)[C@H]2CCCN2C(=O)CN(Cc2ccccc2)C1=O | 10 | > 100 | > 100 | – | – | – | – | – | 0.251 | 3.16 | > 100 |
| CN1CC(=O)N[C@@H](Cc2ccccc2)C(=O)N2CCC[C@@H]2C(=O)N2CCC[C@H]2C(=O)N[C@@H](CCCNC(=N)N)C(=O)N[C@@H](Cc2ccccc2)C(=O)N[C@@H](Cc2ccccc2)C(=O)N[C@@H](CN)C1=O | – | > 100 | > 100 | > 100 | – | – | – | – | 0.794 | 2.51 | > 100 |
| C[C@@H]1NC(=O)CN(CCN)C(=O)[C@H](Cc2ccccc2)NC(=O)[C@H](Cc2ccccc2)NC(=O)[C@H](CCCNC(=N)N)NC(=O)[C@@H]2CCCN2C(=O)[C@H]2CCCN2C(=O)[C@H](Cc2ccccc2)NC1=O | 10 | > 100 | > 100 | – | 60 | – | – | – | 0.00398 | 0.126 | – |
